Results on seven compounds are retold here after US20170152263A1, “Substituted Indazole Compounds as IRAK4 Inhibitors” (AURIGENE DISCOVERY TECHNOLOGIES LIMITED, priority 2014, published 2017).

As usually defined, the inhibition is the drop in the measured response relative to a control, in per cent. As usually defined, the IC50 is the concentration that gives 50% inhibition.

Structures can show the parent of a compound that is named as a salt.

The assay concerns the target T1, recombinant IRAK-4 kinase (Homo sapiens, UniProt Q9NWZ3).
T1 construct: purchased Millipore, USA
T1 sequence (Q9NWZ3 1-460): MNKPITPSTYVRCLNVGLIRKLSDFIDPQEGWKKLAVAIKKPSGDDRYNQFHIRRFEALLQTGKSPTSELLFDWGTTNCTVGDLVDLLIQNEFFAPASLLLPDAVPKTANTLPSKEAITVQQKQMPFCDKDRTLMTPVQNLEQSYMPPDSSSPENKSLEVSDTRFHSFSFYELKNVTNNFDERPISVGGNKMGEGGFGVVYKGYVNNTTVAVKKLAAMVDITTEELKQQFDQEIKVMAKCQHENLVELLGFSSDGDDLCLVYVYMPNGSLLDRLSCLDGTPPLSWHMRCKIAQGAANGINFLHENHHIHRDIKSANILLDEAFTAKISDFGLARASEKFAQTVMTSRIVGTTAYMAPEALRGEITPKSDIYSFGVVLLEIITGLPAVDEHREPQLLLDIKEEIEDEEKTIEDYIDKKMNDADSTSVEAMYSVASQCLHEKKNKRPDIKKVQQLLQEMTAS
Description: IRAK-4 biochemical assay (TR-FRET). To be noted: IRAK-4 enzyme, 20 μM ATP; for inhibition at 0.1 µM: compound at 0.1 μM; for inhibition at 1 µM: compound at 1 μM; for IC50: dose response. On the procedure:
Compounds were tested for their potential to inhibit IRAK-4 enzyme in a TR-FRET assay using recombinant IRAK-4 kinase from Millipore, USA. The assay buffer was 50 mM Tris-HCl pH 7.5, 20 mM MgCl2, 1 mM EGTA, 2 mM DTT, 3 mM MnCl2 and 0.01% Tween 20.5 ng of IRAK-4 kinase was used for the assay. After pre-incubation of enzyme with test compound for 30 minutes at room temperature, a substrate mixture containing 100 nM Biotin Histone H3 (Millipore, USA) and 20 μM ATP (Sigma, USA) was added and the reaction was incubated for 30 min. Post incubation, the reaction was stopped by the addition of stop mix containing 40 mM EDTA, 1 nM of Europium-Anti-Phospho-Histone H3 (Ser10) antibody (Perkin Elmer, USA) and 20 nM SureLight Allophycocyanin-Streptavidin (Perkin Elmer, USA). The fluorescence emission at 615 nm and 665 nm were measured at an excitation of 340 nm and the percent inhibition was estimated from the ratio of the fluorescence intensities [(F665/F615)×10000]. […] The IC50 values were estimated by fitting the dose-response data to sigmoidal dose response (variable slope), curve fitting program using Graphpad Prism software Version 6.01.
(In general: Time-resolved FRET reads energy transfer from a long-lived donor to a nearby acceptor.)

In the case of `CCc1cc(-c2nc(C(=O)Nc3cc4c(cnn4C)cc3N3CC[C@H](O)C3)co2)ccn1` [Example 42, (S)-2-(2-ethylpyridin-4-yl)—N—(5-(3-hydroxypyrrolidin-1-yl)-1-methyl-1H-indazol-6-yl)oxazole-4-carboxamide hydrochloride], the inhibition at 0.1 µM was found to be 83%, the inhibition at 1 µM was determined as 97% and the IC50 is less than 100 nM.
In the case of `Cc1nn(C)c2cc(NC(=O)c3coc(-c4ccnc(N)c4)n3)c(N3CCC(CO)CC3)cc12` [Example 43, 2-(2-aminopyridin-4-yl)—N—(5-(4-(hydroxymethyl)piperidin-1-yl)-1,3-dimethyl-1H-indazol-6-yl)oxazole-4-carboxamide hydrochloride], the inhibition at 0.1 µM came out at 0% and the inhibition at 1 µM was determined as 15%.
As to `Cc1cc(-c2nc(C(=O)Nc3cc4c(cnn4CC4CCNCC4)cc3N3CC[C@H](O)C3)co2)ccn1` [Example 44, (S)—N—(5-(3-hydroxypyrrolidin-1-yl)-1-(piperidin-4-ylmethyl)-1H-indazol-6-yl)-2-(2-methylpyridin-4-yl)oxazole-4-carboxamide hydrochloride], the inhibition at 0.1 µM was 0% and the inhibition at 1 µM turned out to be 54%.
As for `Cc1cc(-c2nc(C(=O)Nc3cc4c(cc3N3CCC(CO)CC3)c(C)nn4C)co2)ccn1` [Example 45, N—(5-(4-(hydroxymethyl)piperidin-1-yl)-1,3-dimethyl-1H-indazol-6-yl)-2-(2-methylpyridin-4-yl)oxazole-4-carboxamide hydrochloride], the inhibition at 0.1 µM worked out at 2% and the inhibition at 1 µM worked out at 12%.
`Cn1ncc2cc(N3CC[C@H](O)C3)c(NC(=O)c3coc(-c4ccnc(C5CC5)c4)n3)cc21` [Example 46, (S)-2-(2-cyclopropylpyridin-4-yl)—N—(5-(3-hydroxypyrrolidin-1-yl)-1-methyl-1H-indazol-6-yl)oxazole-4-carboxamide hydrochloride]: the inhibition at 0.1 µM was 93%, the inhibition at 1 µM came out at 97% and the IC50 is less than 100 nM.
For the compound `Cn1cc2cc(N3CCC(O)CC3)c(NC(=O)c3cnn4cccnc34)cc2n1` [Example 47, N—(5-(4-hydroxypiperidin-1-yl)-2-methyl-2H-indazol-6-yl)pyrazolo[1,5-a]pyrimidine-3-carboxamide hydrochloride], the inhibition at 0.1 µM worked out at 34%, the inhibition at 1 µM was 89% and the half-maximal inhibitory concentration (IC50) was in the range of 100 to 250 nM.
Consider `Cn1ncc2cc(N3CC[C@H](O)C3)c(NC(=O)c3cnn4cccnc34)cc21` [Example 48, (S)—N—(5-(3-hydroxypyrrolidin-1-yl)-1-methyl-1H-indazol-6-yl)pyrazolo[1,5-a]pyrimidine-3-carboxamide hydrochloride], for which the inhibition at 0.1 µM stood at 25%, the inhibition at 1 µM was 80% and the IC50 is greater than 250 nM.
